Experimental findings from patent US8609690B2, “Aryl- and heteroarylcarbonyl derivatives of substituted nortropanes, medicaments containing such compounds and their use” (Boehringer Ingelheim International GmbH, priority 2008, dated 2013) are described below.

In the experiment the target is T1, 11β-HSD 1 (Homo sapiens, UniProt P28845).
T1 construct: detecting cortisol generated from cortisterone by human liver microsomes; from tissue; host or cells: human liver microsomes
T1 sequence (P28845 whole entry): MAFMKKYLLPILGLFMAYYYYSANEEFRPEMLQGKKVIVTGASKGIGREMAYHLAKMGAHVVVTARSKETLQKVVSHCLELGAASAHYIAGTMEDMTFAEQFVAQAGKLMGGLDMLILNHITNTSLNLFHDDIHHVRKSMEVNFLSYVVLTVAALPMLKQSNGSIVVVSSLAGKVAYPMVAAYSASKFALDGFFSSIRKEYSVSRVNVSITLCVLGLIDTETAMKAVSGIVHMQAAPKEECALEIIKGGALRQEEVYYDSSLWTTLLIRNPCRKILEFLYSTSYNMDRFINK
As to the kind of experiment: In vitro inhibition of 11β-HSD 1, HTRF detection of cortisol generated by human liver microsomes. Type of experiment: biochemical. Conditions: 1 μM test compound, 100% indicates no inhibition, zero or below zero indicates complete inhibition (relative to carbenoxolone). In a few lines: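 Human liver microsomes with test compound were incubated 1 h at 37 °C in Tris buffer, pH 6.0, with 200 μM NADPH and 80 nM cortisone. Cortisol formed was detected by competitive HTRF immunoassay (665/615 nm ratio) and calibrated against a cortisol standard curve. Values are activities at 1 μM compound relative to carbenoxolone, where 100% indicates no inhibition.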
Background: In TR-FRET formats the signal depends on donor and acceptor labels being close together.
Turning to `Nc1ccc(C(=O)N2[C@@H]3CC[C@H]2C[C@@H](c2ccc(F)cc2)C3)cc1Cl` [Example 173, endo-(4-Amino-3-chloro-phenyl)-[3-(4-fluoro-phenyl)-8-aza-bicyclo[3.2.1]oct-8-yl]-methanone], the “Inhibitory activity on 11β-HSD 1, % CTL” value was −46 % CTL.

On to `NCc1ccc(C2CC3CCC(C2)N3C(=O)c2ccc3c(c2)OCCO3)cc1` (centres unmarked) [Example 146, [3-(4-Aminomethyl-phenyl)-8-aza-bicyclo[3.2.1]oct-8-yl]-(2,3-dihydro-benzo[1,4]dioxin-6-yl)-methanone], for which the “Inhibitory activity on 11β-HSD 1, % CTL” value was found to be 96 % CTL.

On to `O=C(c1ccc2nccnc2c1)N1[C@@H]2CC[C@H]1C[C@@H](c1ccc(F)cc1)C2` [Example 70, endo-[3-(4-Fluoro-phenyl)-8-aza-bicyclo[3.2.1]oct-8-yl]-quinoxalin-6-yl-methanone], for which the “Inhibitory activity on 11β-HSD 1, % CTL” value worked out at 19 % CTL.

On to `O=C(c1ccc(Cl)cc1)N1[C@@H]2CC[C@H]1C[C@@H](c1ccc(F)cc1)C2` [Example 112, endo-(4-Chloro-phenyl)-[3-(4-fluoro-phenyl)-8-aza-bicyclo[3.2.1]oct-8-yl]-methanone], for which the “Inhibitory activity on 11β-HSD 1, % CTL” value came out at 40 % CTL.

As for `Cn1nnc2cc(C(=O)N3[C@@H]4CC[C@H]3C[C@@H](c3ccc(F)cc3)C4)ccc21` [Example 68, endo-[3-(4-Fluoro-phenyl)-8-aza-bicyclo[3.2.1]oct-8-yl]-(1-methyl-1H-benzotriazol-5-yl)-methanone], the “Inhibitory activity on 11β-HSD 1, % CTL” value is reported as 66 % CTL.

For `CNc1cccc(C(=O)N2[C@@H]3CC[C@H]2C[C@@H](c2ccc(F)cc2)C3)c1` [Example 83, endo-[3-(4-Fluoro-phenyl)-8-aza-bicyclo[3.2.1]oct-8-yl]-(3-methylamino-phenyl)-methanone], the “Inhibitory activity on 11β-HSD 1, % CTL” value is −30 % CTL.

Turning to `O=C(c1ccc2c(c1)CCCN2)N1[C@@H]2CC[C@H]1C[C@@H](c1ccc(F)cc1)C2` [Example 54, endo-[3-(4-Fluoro-phenyl)-8-aza-bicyclo[3.2.1]oct-8-yl]-(1,2,3,4-tetrahydro-quinolin-6-yl)-methanone], the “Inhibitory activity on 11β-HSD 1, % CTL” value is −56 % CTL.

On to `O=C(c1cccc2[nH]cnc12)N1[C@@H]2CC[C@H]1C[C@@H](c1ccc(F)cc1)C2` [Example 73, endo-(1H-Benzoimidazol-4-yl)-[3-(4-fluoro-phenyl)-8-aza-bicyclo[3.2.1]oct-8-yl]-methanone], for which the “Inhibitory activity on 11β-HSD 1, % CTL” value is on record as 90 % CTL.

Regarding `O=C(c1ccc2c(c1)OC(F)(F)O2)N1[C@@H]2CC[C@H]1C[C@@H](c1ccc(F)cc1)C2` [Example 76, endo-(2,2-Difluoro-benzo[1,3]dioxol-5-yl)-[3-(4-fluoro-phenyl)-8-aza-bicyclo[3.2.1]oct-8-yl]-methanone], the “Inhibitory activity on 11β-HSD 1, % CTL” value was determined as 76 % CTL.

Consider `Cn1cnc2cc(C(=O)N3[C@@H]4CC[C@H]3C[C@@H](c3ccc(F)cc3)C4)ccc21` [Example 66, endo-[3-(4-Fluoro-phenyl)-8-aza-bicyclo[3.2.1]oct-8-yl]-(1-methyl-1H-benzoimidazol-5-yl)-methanone], for which the “Inhibitory activity on 11β-HSD 1, % CTL” value is on record as 77 % CTL.

`Cc1ccccc1C(=O)N1[C@@H]2CC[C@H]1C[C@@H](c1ccc(F)cc1)C2` [Example 100, endo-[3-(4-Fluoro-phenyl)-8-aza-bicyclo[3.2.1]oct-8-yl]-o-tolyl-methanone]: the “Inhibitory activity on 11β-HSD 1, % CTL” value was 61 % CTL.

As to `O=C(c1cccc2ncccc12)N1[C@@H]2CC[C@H]1C[C@@H](c1ccc(F)cc1)C2` [Example 37, endo-[3-(4-Fluoro-phenyl)-8-aza-bicyclo[3.2.1]oct-8-yl]-quinolin-5-yl-methanone], the “Inhibitory activity on 11β-HSD 1, % CTL” value is 39 % CTL.

As for `COc1cc(C(=O)N2[C@@H]3CC[C@H]2C[C@@H](c2ccc(F)cc2)C3)cc(Cl)c1O` [Example 175, endo-(3-Chloro-4-hydroxy-5-methoxy-phenyl)-[3-(4-fluoro-phenyl)-8-aza-bicyclo[3.2.1]oct-8-yl]-methanone], the “Inhibitory activity on 11β-HSD 1, % CTL” value was −37 % CTL.

Take `Cn1c(=O)n(C)c2cc(C(=O)N3[C@@H]4CC[C@H]3C[C@@H](c3ccc(F)cc3)C4)ccc21` [Example 39, endo-5-[3-(4-Fluoro-phenyl)-8-aza-bicyclo[3.2.1]octane-8-carbonyl]-1,3-dimethyl-1,3-dihydro-benzoimidazol-2-one]: the “Inhibitory activity on 11β-HSD 1, % CTL” value is reported as 43 % CTL.

With `O=C(c1cccc(Cl)c1)N1[C@@H]2CC[C@H]1C[C@@H](c1ccc(F)cc1)C2` [Example 125, endo-(3-Chloro-phenyl)-[3-(4-fluoro-phenyl)-8-aza-bicyclo[3.2.1]oct-8-yl]-methanone], the “Inhibitory activity on 11β-HSD 1, % CTL” value is 7 % CTL.

For `CS(=O)(=O)N1CCc2cc(C(=O)N3[C@@H]4CC[C@H]3C[C@@H](c3ccc(F)cc3)C4)ccc21` [Example 20, endo-[3-(4-Fluoro-phenyl)-8-aza-bicyclo[3.2.1]oct-8-yl]-(1-methanesulfonyl-2,3-dihydro-1H-indol-5-yl)-methanone], the “Inhibitory activity on 11β-HSD 1, % CTL” value amounted to 87 % CTL.

`Cc1ccc([C@H]2C[C@H]3CC[C@@H](C2)N3C(=O)c2cscn2)cc1` [Example 13, endo-Thiazol-4-yl-(3-p-tolyl-8-aza-bicyclo[3.2.1]oct-8-yl)-methanone]: the “Inhibitory activity on 11β-HSD 1, % CTL” value was determined as 62 % CTL.

In the case of `O=C(c1nsc(Cl)c1Cl)N1[C@@H]2CC[C@H]1C[C@@H](c1ccc(F)cc1)C2` [Example 30, endo-(4,5-Dichloro-isothiazol-3-yl)-[3-(4-fluoro-phenyl)-8-aza-bicyclo[3.2.1]oct-8-yl]-methanone], the “Inhibitory activity on 11β-HSD 1, % CTL” value was 88 % CTL.

On to `COc1cc(C(=O)N2[C@@H]3CC[C@H]2C[C@@H](c2ccc(F)cc2)C3)cc(OC)c1O` [Example 181, endo-[3-(4-Fluoro-phenyl)-8-aza-bicyclo[3.2.1]oct-8-yl]-(4-hydroxy-3,5-dimethoxy-phenyl)-methanone], for which the “Inhibitory activity on 11β-HSD 1, % CTL” value turned out to be 18 % CTL.

Consider `CC(C)(C)c1cc(C(=O)N2[C@@H]3CC[C@H]2C[C@@H](c2ccc(F)cc2)C3)[nH]n1` [Example 11, endo-(5-tert-Butyl-2H-pyrazol-3-yl)-[3-(4-fluoro-phenyl)-8-aza-bicyclo[3.2.1]oct-8-yl]-methanone], for which the “Inhibitory activity on 11β-HSD 1, % CTL” value stood at 82 % CTL.

For `Cc1cc(C(=O)N2[C@@H]3CC[C@H]2C[C@@H](c2ccc(F)cc2)C3)ccc1O` [Example 166, endo-[3-(4-Fluoro-phenyl)-8-aza-bicyclo[3.2.1]oct-8-yl]-(4-hydroxy-3-methyl-phenyl)-methanone], the “Inhibitory activity on 11β-HSD 1, % CTL” value was −33 % CTL.

For the compound `Cc1cccc(C(=O)N2[C@@H]3CC[C@H]2C[C@@H](c2ccc(F)cc2)C3)c1` [Example 99, endo-[3-(4-Fluoro-phenyl)-8-aza-bicyclo[3.2.1]oct-8-yl]-m-tolyl-methanone], the “Inhibitory activity on 11β-HSD 1, % CTL” value is −39 % CTL.

Regarding `COc1ccc(C(=O)N2[C@@H]3CC[C@H]2C[C@@H](c2ccc(F)cc2)C3)c(OC)c1` [Example 117, endo-(2,4-Dimethoxy-phenyl)-[3-(4-fluoro-phenyl)-8-aza-bicyclo[3.2.1]oct-8-yl]-methanone], the “Inhibitory activity on 11β-HSD 1, % CTL” value was found to be 53 % CTL.

`COc1ccc(C(=O)N2[C@@H]3CC[C@H]2C[C@@H](c2ccc(F)cc2)C3)cc1C` [Example 170, endo-[3-(4-Fluoro-phenyl)-8-aza-bicyclo[3.2.1]oct-8-yl]-(4-methoxy-3-methyl-phenyl)-methanone]: the “Inhibitory activity on 11β-HSD 1, % CTL” value is given as −34 % CTL.

For the compound `Cc1nc2ccc(C(=O)N3[C@@H]4CC[C@H]3C[C@@H](c3ccc(F)cc3)C4)cc2[nH]1` [Example 74, endo-[3-(4-Fluoro-phenyl)-8-aza-bicyclo[3.2.1]oct-8-yl]-(2-methyl-3H-benzoimidazol-5-yl)-methanone], the “Inhibitory activity on 11β-HSD 1, % CTL” value was determined as 69 % CTL.

Regarding `COc1cc(C(=O)N2[C@@H]3CC[C@H]2C[C@@H](c2ccc(F)cc2)C3)ccc1O` [Example 171, endo-[3-(4-Fluoro-phenyl)-8-aza-bicyclo[3.2.1]oct-8-yl]-(4-hydroxy-3-methoxy-phenyl)-methanone], the “Inhibitory activity on 11β-HSD 1, % CTL” value is recorded as −26 % CTL.

With `Cn1ccc2cc(C(=O)N3[C@@H]4CC[C@H]3C[C@@H](c3ccc(F)cc3)C4)ccc21` [Example 131, endo-[3-(4-Fluoro-phenyl)-8-aza-bicyclo[3.2.1]oct-8-yl]-(1-methyl-1H-indol-5-yl)-methanone], the “Inhibitory activity on 11β-HSD 1, % CTL” value is −20 % CTL.

`CN1C(=O)Cc2cc(C(=O)N3[C@@H]4CC[C@H]3C[C@@H](c3ccc(F)cc3)C4)ccc21` [Example 78]: the “Inhibitory activity on 11β-HSD 1, % CTL” value came out at 49 % CTL.

Regarding `N#Cc1ccccc1C(=O)N1[C@@H]2CC[C@H]1C[C@@H](c1ccc(F)cc1)C2` [Example 63, endo-2-[3-(4-Fluoro-phenyl)-8-aza-bicyclo[3.2.1]octane-8-carbonyl]-benzonitrile], the “Inhibitory activity on 11β-HSD 1, % CTL” value is recorded as 91 % CTL.

For `CC(=O)Nc1cccc(C(=O)N2[C@@H]3CC[C@H]2C[C@@H](c2ccc(F)cc2)C3)c1` [Example 64, endo-N-{3-[3-(4-Fluoro-phenyl)-8-aza-bicyclo[3.2.1]octane-8-carbonyl]-phenyl}-acetamide], the “Inhibitory activity on 11β-HSD 1, % CTL” value is 99 % CTL.

For `COc1c(F)cc(C(=O)N2[C@@H]3CC[C@H]2C[C@@H](c2ccc(F)cc2)C3)cc1F` [Example 168, endo-(3,5-Difluoro-4-methoxy-phenyl)-[3-(4-fluoro-phenyl)-8-aza-bicyclo[3.2.1]oct-8-yl]-methanone], the “Inhibitory activity on 11β-HSD 1, % CTL” value was 6 % CTL.

`Cc1ccc([C@H]2C[C@H]3CC[C@@H](C2)N3C(=O)c2ccc(OC3CSC3)cc2)cc1` [Example 32, endo-[4-(Thietan-3-yloxy)-phenyl]-(3-p-tolyl-8-aza-bicyclo[3.2.1]oct-8-yl)-methanone]: the “Inhibitory activity on 11β-HSD 1, % CTL” value is given as 94 % CTL.
